Test results reported in patent publication US6825185B2, “Substituted aryl compounds as novel cyclooxygenase-2 selective inhibitors, compositions and methods of use” (NitroMed, Inc., priority 2000, dated 2004).

What was measured:
COX-1 [1] = target: T1, COX-1 (Homo sapiens, UniProt P23219); assay: Human COX-1 enzyme activity (COX Inhibitor Screening Assay, prostaglandin EIA); assay type: biochemical; set-up: purchased Cayman Chemical; settings: test compound at 100 μM
Experimental: (§1) The human COX-1 and COX-2 enzyme activities and the measurement of the prostaglandin products synthesized were performed using the COX Inhibitor Screening Assay (Cayman Chemical, Ann Arbor, Mich.), which also contained the Prostaglandin Screening EIA Kit, used for prostaglandin quantification). The test compounds were dissolved at 50 times the highest final reaction concentration in DMSO or any other suitable solvent as stock solutions. These stock solutions were then diluted in the same solvent. Eight glass test tubes (13×100 mm) were placed in a 25° C. water bath. To each test tube was added 950 μL of reaction buffer (0.1 M Tris-HCl, pH 8.0, containing 5 mM EDTA, and 2 mM phenol), 10 μL of 100 µM heme solution, and 10 μL (5 units) of either human COX-1 or COX-2 enzyme and the resulting mixture was incubated for 2 minutes. Twenty μL of the solvent was added to one tube (100% initial activity or solvent control) and 20 μL of each dilution of the test compound was added to one tube each. Each tube was vortexed immediately after the addition. The enzyme was incubated with the inhibitor for 20 minutes at 25° C. The enzymatic reaction was then initiated by the addition of 10 μL of freshly prepared 10 mM arachidonic acid (neutralized with KOH), vortexed and then incubated for 2 minutes (or, in some cases as indicated, 30 seconds) at 37° C. The reaction was terminated by the addition of 50 μL of 1 M HCl, vortexed and placed at room temperature. One hundred μL of a saturated stannous chloride solution (50 mg/mL of 0.1 M HCl) was added and the reaction mixture was allowed to stand at room temperature for at least 5 minutes.
(§2) The prostaglandins (PG) produced in the reactions were assayed, after a 2,000-fold dilution, using the Prostaglandin Screening EIA Kit (Cayman Chemical, Ann Arbor, Mich.). The assay contains an antibody with broad specificity for all the prostaglandin families (PGF, PGE, PGD, and thromboxane B-type) synthesized in the COX-1/COX-2 reactions. The synthesized prostaglandin competes with a PG-tagged acetylcholine esterase tracer for binding to the PG antibody. Binding of synthesized PG lowers the colorimetric development of the Ellman's Reagent (computed as %B/B0). The actual amount of synthesized PG was interpolated from a standard curve using known amounts of supplied prostaglandin E2 (PGE2) (PGE2 concentration vs. %B/B0). The data generated were the mean±standard deviation of triplicate wells in the EIA for a single reaction at a given inhibitor concentration. A plot of % of control (i.e., the solvent control without inhibitor) vs. test compound inhibitor concentration for both isoenzymes was used to determine the IC50 's for COX-1 and COX-2 for that test compound, when IC50's were calculated. The % inhibition for COX-1 and COX-2 enzyme activity by the test compounds at the indicated concentrations are given in Table 1.

COX-1 [2] = target: T1, COX-1; assay: COX-1 enzyme activity in human whole blood (A23187 stimulated, thromboxane B2 EIA); assay type: cell-based; set-up: Human blood (≈50 mL) from male or female donors who had not received any aspirin or NSAIDs for 14 days; endogenous in cells; host or cells: human whole blood from donors; settings: test compound at 100 μM
Experimental: (§3) The assay for COX-1 and COX-2 enzyme activity, in the human whole blood was performed as described in Brideau et al., Inflamm Res., 45: 68-74 (1996)). Human blood (≈50 mL) from male or female donors who had not received any aspirin or NSAIDs for 14 days was collected at two local area blood donor centers and placed in polypropylene syringes containing sodium heparin (20 units per mL blood, final concentration). The blood was transported to the laboratory on ice packs and used within 1.5 hours of collection. Upon receipt in the laboratory, the blood was allowed to come to room temperature for 15 minutes prior to distribution in 1 mL aliquots per well of 24 well tissue culture plates. The plates were then placed on a gently rotating platform shaker in a 5% CO2 incubator at 37° C. for 15 minutes. Test compounds were dissolved in DMSO, at 1000 fold the final desired concentration, and further diluted, as indicated, in DMSO. One μL of each dilution of the test compound was added per well, in duplicate wells; wells not receiving test compound (e.g., basal, background or control wells) received 1 μL DMSO.
(§4) To induce COX-2, lipopolysaccharide (LPS) from E. coli (LPS, serotype 026:B6 or serotype 0127:B8, Sigma Chemical Co., St. Louis, Mo., Catalogue No. L3755 or L3129, respectively) was added at 10 μg/mL (2 μL of 5 mg/mL LPS in DMSO) to appropriate wells 15 minutes after the addition of the test compound. (Basal or background wells not incubated with LPS received 2 μL of DMSO.) For the stimulation of COX-1, the calcium ionophore, A23187 (free acid from Sigma Chemical Co., St. Louis, Mo., Catalogue No. C7522) was added at 25 μM (1 μL of 25 mM stock in DMSO) to separate wells 4.5 hours after the addition of the test compound. (Again, basal, background or control wells not stimulated with A23187 received 1 μL of DMSO.) At 5 hours after the addition of the test compound, all incubations were terminated by placement on ice and the addition of 2 mM EGTA (100 μL of 20 mM EGTA, tetrasodium, in PBS (phosphate buffered saline) without Ca^++ and Mg^++, pH 7.2)). The resulting solutions, were transferred by polyethylene transfer pipettes to 15 mL polypropylene centrifuge tubes and centrifuged at 1200 g for 10 minutes at 4° C. One hundred μL of plasma was removed from each blood sample and added to 1 mL of methanol in new 15 mL polypropylene centrifuge tubes, vortexed, and stored overnight at −20° C. The next day, the samples were centrifuged at 2000 g for 10 minutes at 4° C. and the supernatants transferred to glass tubes and evaporated to dryness. The samples were assayed for thromboxane B2 using EIA kits supplied by Cayman Chemical Co. (Ann Arbor, Mich., Catalogue No. 519031) in duplicate wells after reconstitution with EIA Buffer and appropriate dilution (2000 fold for COX-1 and 500 fold for Cox-2 samples).

COX-2 [3] = target: T2, COX-2 (Homo sapiens, UniProt P35354); assay: Human COX-2 enzyme activity (COX Inhibitor Screening Assay, prostaglandin EIA); assay type: biochemical; set-up: purchased Cayman Chemical; settings: test compound at 10 μM
T2 sequence (P35354 18-604): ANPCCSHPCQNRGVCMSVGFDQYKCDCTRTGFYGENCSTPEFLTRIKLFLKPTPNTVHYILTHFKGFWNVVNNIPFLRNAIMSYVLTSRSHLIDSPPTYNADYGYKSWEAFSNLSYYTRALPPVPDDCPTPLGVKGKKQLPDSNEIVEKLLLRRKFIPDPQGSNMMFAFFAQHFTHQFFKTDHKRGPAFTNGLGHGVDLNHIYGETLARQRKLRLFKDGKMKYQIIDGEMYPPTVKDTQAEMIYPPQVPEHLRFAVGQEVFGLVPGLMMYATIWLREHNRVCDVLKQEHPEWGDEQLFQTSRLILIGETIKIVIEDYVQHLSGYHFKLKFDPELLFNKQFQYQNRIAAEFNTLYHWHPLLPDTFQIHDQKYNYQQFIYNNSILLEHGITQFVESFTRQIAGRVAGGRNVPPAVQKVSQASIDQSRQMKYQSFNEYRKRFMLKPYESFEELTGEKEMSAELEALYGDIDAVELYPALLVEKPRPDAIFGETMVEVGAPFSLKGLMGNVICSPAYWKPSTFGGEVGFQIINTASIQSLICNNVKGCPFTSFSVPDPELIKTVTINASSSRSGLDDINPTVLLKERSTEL
Experimental: as §1
as §2, with “concentration.” for “concentration. A plot of % of control (i.e., the solvent control without inhibitor) vs. test compound inhibitor concentration for both isoenzymes was used to determine the IC50 's for COX-1 and COX-2 for that test compound, when IC50's were calculated. The % inhibition for COX-1 and COX-2 enzyme activity by the test compounds at the indicated concentrations are given in Table 1.”

COX-2 [4] = target: T2, COX-2; assay: COX-2 enzyme activity in human whole blood (LPS induced, thromboxane B2 EIA); assay type: cell-based; set-up: Human blood (≈50 mL) from male or female donors who had not received any aspirin or NSAIDs for 14 days; endogenous in cells; host or cells: human whole blood from donors, LPS-induced; settings: test compound at 10 μM
Experimental: as §3, with “Human” for “The assay for COX-1 and COX-2 enzyme activity, in the human whole blood was performed as described in Brideau et al., Inflamm Res., 45: 68-74 (1996)). Human”
as §4, with “(Basal or background wells not incubated with LPS received 2 μL of DMSO.) For the stimulation of COX-1, the calcium ionophore, A23187 (free acid from Sigma Chemical Co., St. Louis, Mo., Catalogue No. C7522) was added at 25 μM (1 μL of 25 mM stock in DMSO) to separate wells 4.5 hours after the addition of the test compound.” left out, “dryness.” for “dryness. The samples were assayed for thromboxane B2 using EIA kits supplied by Cayman Chemical Co. (Ann Arbor, Mich., Catalogue No. 519031) in duplicate wells after reconstitution with EIA Buffer and appropriate dilution (2000 fold for COX-1 and 500 fold for Cox-2 samples).”

T1 sequence (P23219 24-599): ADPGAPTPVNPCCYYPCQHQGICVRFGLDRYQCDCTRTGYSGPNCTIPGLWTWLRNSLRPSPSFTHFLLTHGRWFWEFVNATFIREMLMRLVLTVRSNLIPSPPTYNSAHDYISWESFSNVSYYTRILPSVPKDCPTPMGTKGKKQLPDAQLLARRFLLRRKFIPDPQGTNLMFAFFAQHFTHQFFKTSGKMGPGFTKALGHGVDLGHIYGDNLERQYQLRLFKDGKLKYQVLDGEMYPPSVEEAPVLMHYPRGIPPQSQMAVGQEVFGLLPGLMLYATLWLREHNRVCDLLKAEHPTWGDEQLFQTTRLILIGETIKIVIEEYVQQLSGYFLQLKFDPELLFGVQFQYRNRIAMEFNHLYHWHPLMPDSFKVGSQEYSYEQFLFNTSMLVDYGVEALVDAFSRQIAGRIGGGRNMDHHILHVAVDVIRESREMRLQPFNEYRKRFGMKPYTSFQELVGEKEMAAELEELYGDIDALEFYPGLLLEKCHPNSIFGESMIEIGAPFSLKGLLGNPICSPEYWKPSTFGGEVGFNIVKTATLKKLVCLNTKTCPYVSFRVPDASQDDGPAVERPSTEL

| SMILES | COX-1 Inhibition (% at 100 μM) (COX-1 [1]) | COX-1 Inhibition (% at 100 μM) (COX-1 [2]) | COX-2 Inhibition (% at 10 μM) (COX-2 [3]) | inhibition at 10 µM (COX-2 [4]) | melting point | inhibition at 100 µM (COX-1 [2]) |
| --- | --- | --- | --- | --- | --- | --- |
| CS(=O)(=O)c1ccc(-c2cc3c(cc2C=C2CCCCC2)OCO3)cc1 [Example 1d, 1-(6-(Cyclohexylidenemethyl)(2-H-benzo(3,4-d) 1,3-dioxolen-5-yl))-4-(methylsulfonyl)benzene] | 5% | 50% | – | – | – | – |
| CS(=O)(=O)c1ccc(-c2cc3c(cc2C(=O)c2cccnc2)OCO3)cc1 [Example 6d, 6-(4-(Methylsulfonyl)phenyl)(2H-benzo(d)1,3-dioxolan-5-yl) 3-pyridyl ketone] | 20% | – | 20% | – | – | – |
| CS(=O)(=O)c1ccc(-c2cc3c(cc2CN2CCCC(CO)C2)OCO3)cc1 (stereo not drawn) [Example 8b, 1-(6-((3-(Hydroxymethyl)piperidyl)methyl)(2H-benzo(3,4-d)1,3-dioxolan-5-yl))-4-(methylsulfonyl)benzene] | 0% | – | 30% | – | – | – |
| CS(=O)(=O)c1ccc(-c2cc3c(cc2CN2CCCC(CO[N+](=O)[O-])C2)OCO3)cc1 (stereo not drawn) [Example 8c, 4-(Methylsulfonyl)-1-(6-((3-((nitrooxy)methyl)piperidyl)methyl)(2H-benzo(3,4-d) 1,3-dioxolan-5-yl))benzene] | 25% | – | 80% | – | – | – |
| CS(=O)(=O)c1ccc(-c2cc3c(cc2CC2CCCC2)OCO3)cc1 [Example 10b, 4-(6-(Cyclopenthylmethyl)(2H-benzo(3,4-d)1,3-dioxolan-5-yl))-1-(methylsulfonyl)benzene] | 20% | – | 70% | – | – | – |
| CS(=O)(=O)c1ccc(-c2cc3c(cc2C=C2CCCCCC2)OCO3)cc1 [Example 11b, 4-(6-(Cycloheptylidenemethyl)(2H-benzo(3,4-d)1,3-dioxolan-5-yl))-1-(methylsulfonyl) benzene] | 10% | 40% | – | – | – | – |
| CS(=O)(=O)c1ccc(-c2cc3c(cc2Cc2cc(F)cc(F)c2)OCCO3)cc1 [Example 20, 1-(7-((3,5-Difluorophenyl)methyl)(2H, 3H-benzo(3,4-e)1,4-dioxin-6-yl))-4-(methylsulfonyl)benzene] | – | – | – | 40% | 160 to 162 °C | 70% |
| CS(=O)(=O)c1ccc(-c2cc3c(cc2Cc2cc(F)cc(F)c2)OC(C(N)=O)CO3)cc1 (stereo not drawn) [Example 21, 7-((3,5-Difluorophenyl)methyl)-6-(4-(methylsulfonyl)phenyl)-2H, 3H-benzo(e)1,4-dioxin-2-carboxamide] | – | – | – | 30% | 238 to 241 °C | 50% |
